# Test results from US20130345214A1, “Lipoxygenase Inhibitors” (SRI International, Inc., priority 2011, published 2013).
# Entries after “also recorded” stand apart in the source; their conditions may differ.
# Legend:
# human 12-LOX = target: T1, human 12-LOX (Homo sapiens, UniProt P18054); assay: colorimetric platelet 12-LOX activity assay (ferric oxidation of xylenol orange, human blood platelets); type: cell-based
# T1 construct: ferric oxidation of xylenol orange from arachidonic acid in human blood platelets; endogenous in cells; host or cells: human blood platelets
# T1 sequence (P18054 1-663): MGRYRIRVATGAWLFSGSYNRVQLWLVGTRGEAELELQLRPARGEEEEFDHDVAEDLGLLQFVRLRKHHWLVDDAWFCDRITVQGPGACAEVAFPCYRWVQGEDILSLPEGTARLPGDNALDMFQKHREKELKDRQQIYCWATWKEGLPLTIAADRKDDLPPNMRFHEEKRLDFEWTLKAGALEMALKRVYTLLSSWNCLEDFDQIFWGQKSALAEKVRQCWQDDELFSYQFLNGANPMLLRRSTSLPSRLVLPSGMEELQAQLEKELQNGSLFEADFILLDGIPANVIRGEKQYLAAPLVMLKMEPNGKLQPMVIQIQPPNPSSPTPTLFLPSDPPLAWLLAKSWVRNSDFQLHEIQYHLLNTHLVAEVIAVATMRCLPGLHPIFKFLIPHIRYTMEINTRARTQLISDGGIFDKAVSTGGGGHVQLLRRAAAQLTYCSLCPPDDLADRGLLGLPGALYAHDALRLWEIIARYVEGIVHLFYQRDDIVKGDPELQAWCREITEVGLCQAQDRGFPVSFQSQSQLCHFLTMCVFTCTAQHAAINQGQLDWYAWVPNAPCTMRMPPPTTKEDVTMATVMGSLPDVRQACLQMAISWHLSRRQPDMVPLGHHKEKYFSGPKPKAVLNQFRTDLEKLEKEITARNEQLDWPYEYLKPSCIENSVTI
# Description: (§1) Table 3 provides results for exemplary subject bisindole compounds on 5-LOX, 12-LOX and 15-LOX.
# 5-LOX [1] = target: T2, 5-LOX (Homo sapiens, UniProt P09917); assay: enzyme panel screening, 5-LOX; type: biochemical
# T2 sequence (P09917 1-674): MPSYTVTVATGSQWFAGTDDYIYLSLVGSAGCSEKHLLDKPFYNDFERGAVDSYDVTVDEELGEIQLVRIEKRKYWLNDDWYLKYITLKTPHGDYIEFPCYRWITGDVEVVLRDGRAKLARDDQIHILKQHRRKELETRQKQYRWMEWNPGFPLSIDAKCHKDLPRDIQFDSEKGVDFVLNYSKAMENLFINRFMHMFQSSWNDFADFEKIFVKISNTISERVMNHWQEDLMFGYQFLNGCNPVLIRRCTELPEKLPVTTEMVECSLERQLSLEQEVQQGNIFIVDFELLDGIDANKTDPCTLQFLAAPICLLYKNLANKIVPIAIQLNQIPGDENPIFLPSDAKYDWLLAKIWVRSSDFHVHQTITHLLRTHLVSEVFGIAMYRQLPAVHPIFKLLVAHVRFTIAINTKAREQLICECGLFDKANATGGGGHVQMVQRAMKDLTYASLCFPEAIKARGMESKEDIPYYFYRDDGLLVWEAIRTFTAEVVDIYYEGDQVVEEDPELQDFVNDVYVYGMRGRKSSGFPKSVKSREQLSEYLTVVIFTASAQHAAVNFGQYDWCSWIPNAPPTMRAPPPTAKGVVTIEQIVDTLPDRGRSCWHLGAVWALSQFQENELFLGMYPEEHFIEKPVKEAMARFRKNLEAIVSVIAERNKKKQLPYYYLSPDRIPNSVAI
# 15-LOX = assay: enzyme panel screening, 15-LOX; type: biochemical
# COX-1 = COX-1 (Homo sapiens, UniProt P23219); assay: effect on cyclooxygenase COX-1 activity; type: biochemical
# COX-1, sequence (P23219 24-599): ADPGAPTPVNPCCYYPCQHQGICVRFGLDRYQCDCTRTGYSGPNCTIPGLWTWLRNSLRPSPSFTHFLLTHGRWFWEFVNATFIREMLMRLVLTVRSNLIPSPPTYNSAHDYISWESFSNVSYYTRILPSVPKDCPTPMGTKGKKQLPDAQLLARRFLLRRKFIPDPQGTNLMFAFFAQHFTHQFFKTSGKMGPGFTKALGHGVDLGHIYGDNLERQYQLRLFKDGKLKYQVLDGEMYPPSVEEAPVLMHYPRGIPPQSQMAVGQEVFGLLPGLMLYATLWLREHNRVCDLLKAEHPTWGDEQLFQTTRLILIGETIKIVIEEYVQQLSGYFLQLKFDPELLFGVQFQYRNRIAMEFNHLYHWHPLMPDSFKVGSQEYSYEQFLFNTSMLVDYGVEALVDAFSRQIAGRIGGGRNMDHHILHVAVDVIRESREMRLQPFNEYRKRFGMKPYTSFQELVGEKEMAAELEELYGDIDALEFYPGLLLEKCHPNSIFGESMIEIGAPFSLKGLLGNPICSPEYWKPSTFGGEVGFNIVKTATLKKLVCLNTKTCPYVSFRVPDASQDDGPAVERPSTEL
# COX-2 = target: T3, COX-2 (Homo sapiens, UniProt P35354); assay: effect on cyclooxygenase COX-2 activity; type: biochemical
# T3 sequence (P35354 18-604): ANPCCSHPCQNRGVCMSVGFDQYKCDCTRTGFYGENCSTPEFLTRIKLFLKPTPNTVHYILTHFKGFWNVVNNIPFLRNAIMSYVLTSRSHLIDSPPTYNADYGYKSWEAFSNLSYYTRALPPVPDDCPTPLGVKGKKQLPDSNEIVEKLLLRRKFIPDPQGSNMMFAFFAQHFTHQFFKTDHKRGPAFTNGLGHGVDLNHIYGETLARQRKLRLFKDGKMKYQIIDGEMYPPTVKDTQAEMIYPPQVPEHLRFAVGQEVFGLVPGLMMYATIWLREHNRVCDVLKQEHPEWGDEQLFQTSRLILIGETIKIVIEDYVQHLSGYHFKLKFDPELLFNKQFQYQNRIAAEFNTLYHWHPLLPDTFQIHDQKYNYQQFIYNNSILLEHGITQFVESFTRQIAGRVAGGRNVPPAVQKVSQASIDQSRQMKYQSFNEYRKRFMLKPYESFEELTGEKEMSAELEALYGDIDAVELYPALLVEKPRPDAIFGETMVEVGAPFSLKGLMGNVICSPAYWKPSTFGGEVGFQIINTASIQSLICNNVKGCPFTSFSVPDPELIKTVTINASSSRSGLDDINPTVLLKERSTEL
# [2] = target: kinase targets, including Akt(1,2,3), PI3K, and PDK1; assay: kinase panel screening; type: biochemical; settings: broad selection of kinase targets incl. Akt(1,2,3)
# Akt and ERK activation = assay: Akt and ERK activation; type: cell-based; settings: by inhibiting 12-LOX mediated metabolism of arachidonic acid
# [3] = glucose metabolism and body weight in mice after oral treatment; type: in vivo
# 5-LOX [4] = target: T2, 5-LOX; assay: fluorescence-based enzyme assay of human 5-LOX (Table 3); type: biochemical; settings: 3 μM
# Description: as §1
# 15-LOX-2 = target: T4, 15-LOX-2 (Homo sapiens, UniProt O15296); assay: in vitro 15-LOX-2 inhibition (Table 3); type: biochemical
# T4 sequence (O15296 1-676): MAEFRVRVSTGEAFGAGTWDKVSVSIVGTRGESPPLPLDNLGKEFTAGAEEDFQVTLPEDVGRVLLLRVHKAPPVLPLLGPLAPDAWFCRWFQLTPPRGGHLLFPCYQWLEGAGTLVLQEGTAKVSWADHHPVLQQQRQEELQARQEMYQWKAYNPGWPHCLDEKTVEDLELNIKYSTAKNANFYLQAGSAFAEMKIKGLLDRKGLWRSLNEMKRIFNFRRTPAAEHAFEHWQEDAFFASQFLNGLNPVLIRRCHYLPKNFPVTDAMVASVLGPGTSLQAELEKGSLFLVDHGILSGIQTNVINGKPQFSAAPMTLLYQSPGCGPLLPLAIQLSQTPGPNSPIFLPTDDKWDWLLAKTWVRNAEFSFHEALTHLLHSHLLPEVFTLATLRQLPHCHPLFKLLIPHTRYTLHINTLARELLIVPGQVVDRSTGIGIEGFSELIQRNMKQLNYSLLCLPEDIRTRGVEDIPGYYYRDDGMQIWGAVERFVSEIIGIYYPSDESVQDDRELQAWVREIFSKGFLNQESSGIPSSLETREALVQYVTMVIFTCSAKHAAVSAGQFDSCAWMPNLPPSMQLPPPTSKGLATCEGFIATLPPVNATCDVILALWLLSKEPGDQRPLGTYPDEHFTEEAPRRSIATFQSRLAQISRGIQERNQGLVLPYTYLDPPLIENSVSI
# Description: as §1
Compound,inhibition at 3 µM (5-LOX [4]) [%],inhibition at 3 µM (human 12-LOX) [%],inhibition at 3 µM (15-LOX-2) [%],further results
CCOC(=O)c1ccc2[nH]c3c(OC)c4[nH]c5ccc(C(=O)OCC)cc5c4cc3c2c1 [Compound (1)],,,,"12-LOX enzyme activity inhibition (human 12-LOX; 10 uM, human blood platelets, cell-based assay): inhibit 12-LOX enzyme activity; IC50 (human 12-LOX; cell-based enzyme assay): 10 nM; selectivity for 12-LOX (human 12-LOX; versus panels of kinases and enzymes incl. 5-LOX and 15-LOX): selective for 12-LOX; also recorded: selectively inhibits 12-lipoxygenase enzyme activity; also recorded: selectively inhibits human 12-LOX; effect on 5-LOX activity (5-LOX [1]): does not significantly affect the activity; effect on 15-LOX activity (15-LOX): does not significantly affect the activity; effect on COX-1 activity (COX-1): does not significantly affect the activity; effect on COX-2 activity (COX-2): does not significantly affect the activity; kinase inhibition [2]: not a kinase inhibitor; Akt and ERK activation (Akt and ERK activation): inhibit Akt and ERK activation; effects on glucose metabolism [3]: no adverse effects on glucose metabolism; effects on body weights ([3]; oral, 500 mg/kg/day, 14 days): no adverse effects; effects on fasting glucose levels ([3]; oral, 500 mg/kg/day, 14 days): no adverse effects"
CN(C)CCOc1c2[nH]c3ccc(F)cc3c2cc2c1[nH]c1ccc(F)cc12 [drawing 7],90,78,46,
CCOC(=O)c1ccc2[nH]c3c(O[C@H]4CCNC4)c4[nH]c5ccc(C(=O)OCC)cc5c4cc3c2c1 [drawing 20],37,75,10,
N=C(N)NCCCOc1c2[nH]c3ccc(F)cc3c2cc2c1[nH]c1ccc(F)cc12 [drawing 11],95,79,66,
Clc1ccc2[nH]c3c(OCC4CCCN4)c4[nH]c5ccc(Cl)cc5c4cc3c2c1 (stereo not drawn) [drawing 13],79,79,43,
